Laboratory results published in patent US8722649B2, “Alpha-chloro and alpha-bromo phosphonate analogs of lysophosphatidic acid and methods of making and using thereof” (University of Utah Research Foundation, priority 2007, dated 2014).
Where two headings read alike, the source gives them in different places.

Tests used:
Type in all cases: cell-based
human LPA3 = biological target: T1, human LPA3 (Homo sapiens, UniProt Q9UBY5); assay: Ca2+ mobilization assay, LPA3; details: for EC50: RH7777 cells stably expressing LPA3, agonist mode; for LPA3 (Emax): Emax = (maximal efficacy of compound/maximal efficacy of LPA 18:1) × 100; for LPA3 ligand type: agonist/antagonist in words
T1 construct: expressed in transfected cells
T1 sequence (Q9UBY5 1-353): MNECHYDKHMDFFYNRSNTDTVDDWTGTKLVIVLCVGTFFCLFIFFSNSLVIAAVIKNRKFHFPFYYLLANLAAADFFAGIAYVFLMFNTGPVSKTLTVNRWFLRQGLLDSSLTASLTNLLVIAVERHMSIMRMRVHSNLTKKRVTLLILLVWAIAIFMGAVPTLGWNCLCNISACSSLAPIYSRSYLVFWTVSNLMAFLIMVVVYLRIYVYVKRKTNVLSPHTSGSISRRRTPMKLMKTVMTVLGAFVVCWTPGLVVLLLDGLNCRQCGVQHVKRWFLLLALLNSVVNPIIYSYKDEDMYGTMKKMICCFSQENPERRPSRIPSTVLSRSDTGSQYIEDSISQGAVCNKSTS
Protocol: (§1) Receptor activation using Ca^2+ mobilization assay for diastereomers of 1 (also represented as 19b). The rat hepatoma (RH7777) cell lines individually expressing either LPA1, LPA2, LPA3 or LPA5 receptors and Chinese hamster ovary (CHO) cell line were analyzed to examine agonism and antagonism. […] CHO cells stably expressing either vector or LPA4 were kindly gifted from Dr. Shimizu (University of Tokyo, Tokyo, Japan).
Stable transformants of LPA1/2/3 receptors. RH7777 cells stably expressing each receptor were plated onto poly-L-lysine (PLL) (0.1 mg/mL)-coated black-wall clear-bottom 96-well plates (Corning Incorporated Life Sciences, Acton, Mass.) at a density of 5×10^4 cells/well and cultured overnight. The following day, the culture medium was replaced with modified Krebs buffer (120 mM NaCl, 5 mM KCl, 0.62 mM MgSO4, 1.8 mM CaCl2, 10 mM HEPES, 6 mM glucose, pH 7.4), and the cells were serum starved for 6 h. Subsequently, cells were loaded with Fura-2 AM (Invitrogen, Carlsbad, Calif.) for 35 min in modified Krebs buffer containing 2% (v/v) pluronic acid.
(§2) After incubating the cells with Fura-2 AM, the cells were rinsed with Krebs buffer and changes in the intracellular Ca^2+ concentration were monitored by determining the ratio of emitted light intensities at 520 nm in response to excitation at 340 and 380 nm using FLEXstation II (Molecular Devices, Sunnyvale, Calif.). Each well was monitored for 80-120 sec. For testing agonist activity of the compounds, the test compounds were added automatically after 15 sec of baseline measurement. […] Each test was performed in quadruplicate. EC50, IC50, and Ki values were calculated by fitting a sigmoid function to data points with the nonlinear curve-fitting feature of KaleidaGraph (Synergy Software, Essex Junction, Vt.).
(§3) Receptor activation using Ca^2+ mobilization assay. The assay for mobilization of intracellular Ca^2+ was performed as described. Briefly, rat hepatoma RH7777 cells stably expressing human LPA1, LPA2, or LPA3, and CHO cells stably expressing LPA4, were loaded with Fura-2 AM (Molecular Probes). Using a FLEXStation (Molecular Devices, Sunnyvale, Calif.), changes in intracellular Ca^2+ concentration were monitored. Ligand-induced changes in fluorescence were monitored for 80-120 seconds. Ca^2+ transients were quantified automatically by calculating the difference between maximum and baseline ratio values for each sample. […] Each test was performed in quadruplicate. EC50, IC50, and Ki values were calculated as described. The ligand properties of the compounds were evaluated using Ca^2+ mobilization assay for assessing the activation/inhibition of LPA1, LPA2, and LPA3 expressed in RH7777 cells and LPA4 expressed in CHO cells.

human LPA4 = biological target: T2, human LPA4 (Homo sapiens, UniProt Q99677); assay: Ca2+ mobilization assay, LPA4 in CHO cells; details: for EC50: CHO cells stably expressing LPA4, agonist mode; for inhibition at 30 µM: CHO, at 30 μM (400 nM LPA), read-out: LPA4 Inhibition; for LPA4 (Emax): Emax = (maximal efficacy of compound/maximal efficacy of LPA 18:1) × 100; for LPA4 ligand type: agonist/antagonist in words
T2 construct: expressed in transfected cells
T2 sequence (Q99677 whole entry): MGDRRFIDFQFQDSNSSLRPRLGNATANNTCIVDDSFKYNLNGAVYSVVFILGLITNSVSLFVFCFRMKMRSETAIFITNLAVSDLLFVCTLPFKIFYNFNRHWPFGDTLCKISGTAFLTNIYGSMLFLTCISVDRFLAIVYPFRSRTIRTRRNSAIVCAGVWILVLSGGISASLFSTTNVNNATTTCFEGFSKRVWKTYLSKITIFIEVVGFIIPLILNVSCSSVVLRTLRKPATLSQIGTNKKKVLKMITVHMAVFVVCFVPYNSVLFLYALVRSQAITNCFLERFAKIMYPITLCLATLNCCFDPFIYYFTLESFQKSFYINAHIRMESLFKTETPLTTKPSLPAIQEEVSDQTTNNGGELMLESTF
Protocol: as §1
Stable transformants of LPA4. CHO cells stably expressing either vector or LPA4 were plated on non-coated 96 well plates at a density of 4×10^4 cells/well and cultured overnight. The following day, cells were loaded with Fura-2 AM for 1 h in modified Krebs buffer containing 2% (v/v) pluronic acid and 2.5 mM probenecid.
as §2, §3

PPARγ = biological target: T3, PPARγ (Homo sapiens, UniProt P37231); assay: PPARγ activation assay (PPRE-Acox-Rluc reporter in CV-1 cells); details: 10 μM test analogue, 20 h
T3 construct: expressed in transfected cells; host or cells: CV-1 cells, transient (LipofectAMINE 2000)
T3 sequence (P37231 1-505): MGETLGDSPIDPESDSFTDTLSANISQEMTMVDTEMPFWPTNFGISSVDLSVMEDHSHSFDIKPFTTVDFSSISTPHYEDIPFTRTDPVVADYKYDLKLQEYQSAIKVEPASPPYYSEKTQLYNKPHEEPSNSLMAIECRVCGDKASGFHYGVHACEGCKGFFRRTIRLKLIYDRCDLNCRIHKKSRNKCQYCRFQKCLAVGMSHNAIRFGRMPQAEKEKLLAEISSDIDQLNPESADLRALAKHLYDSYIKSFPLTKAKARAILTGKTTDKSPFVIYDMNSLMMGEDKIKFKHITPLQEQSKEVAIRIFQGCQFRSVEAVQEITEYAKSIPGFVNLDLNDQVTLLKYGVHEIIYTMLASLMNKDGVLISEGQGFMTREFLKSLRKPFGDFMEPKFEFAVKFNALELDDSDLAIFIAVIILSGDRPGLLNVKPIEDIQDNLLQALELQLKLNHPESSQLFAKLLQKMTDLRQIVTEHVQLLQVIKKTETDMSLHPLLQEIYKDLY
Protocol: PPARγ activation assay. PPARγ activation was performed using CV-1 cells transfected with an acyl-coenzyme A oxidase-luciferase (PPRE-Acox-Rluc) reporter gene construct as previously reported. Briefly, CV-1 cells were plated in 96-well plates at a density of 1×10^4 cells per well in Dulbecco's modified Eagle's medium supplemented with 10% fetal bovine serum. The next day, the cells were transiently transfected with 125 ng of pGL3-PPRE-Acox-Rluc, 62.5 ng of pcDNA3.1 PPARγ, and 12.5 ng of pSV-β-galactosidase (Promega) using LipofectAMINE 2000 (Invitrogen). Twenty-four hours after transfection, cells were treated with OptiMEM (Invitrogen) containing 10 μM Rosiglitazone or 10 μM of the test analogue dissolved in DMSO for 20 h. Luciferase and β-galactosidase activities were measured with Steady-Glo® Luciferase Assay System (Promega) and the Galacto-Light Plus™ system (Applied Biosystems), respectively. Samples were run in quadruplicate and the mean ±standard errors were calculated. Data are representative of at least two independent transfections.

[1] = antagonist mode vs 200 nM LPA, read-out: LPA3 (Ki)
[2] = diastereomer study, RH7777 cells, read-out: LPA3 IC50 (Table 2)
[3] = diastereomer study, RH7777 cells, read-out: LPA3 Ki (Table 2)

SMILES	EC50 (human LPA3) [nM]	Ki (human LPA3; [1]) [nM]	inhibition at 30 µM (human LPA3; at 30 μM (200 nM LPA)) [%]	IC50 (human LPA3; read-out: LPA3 IC50) [nM]	IC50 (human LPA4) [nM]	EC50 (human LPA4) [nM]	inhibition at 30 µM (human LPA4) [%]	Ki (human LPA4; antagonist mode vs 400 nM LPA) [nM]	LPA3 (Emax) (human LPA3)	LPA4 (Emax) (human LPA4)	LPA4 ligand type (human LPA4)	PPARγ (PPRE luciferase reporter gene assay) (PPARγ)	LPA3 ligand type (human LPA3)	IC50 (human LPA3; [2]) [nM]	Ki (human LPA3; [3]) [nM]	IC50 (human LPA3; antagonist mode vs 200 nM LPA, PA = partial antagonist, read-out: LPA3 IC50) [nM]
CCCCCCCCCCCCCCCC(=O)OC[C@@H](O)CC(Br)P(=O)(O)O (mixture of isomers) [Compound 1, [1-Bromo-3(S)-hydroxyl-4-(palmitoyloxy)butyl]-phosphonate]	> 30000	380	71.3	1160 ± 259	266	> 30000	13.9	167	–	–	–	–	–	–	–	–
CCCCCCCCC=CCCCCCCCC(=O)OCC(O)CC(O)P(=O)([O-])O.[Na+] (mixture of isomers) [Compound 22a, reference compound]	393 ± 89	–	–	–	–	> 1150	–	–	(116 ± 9.5)	(71.7 ± 2.0)	weak LPA4 agonists	NE (NE = no effect was shown at the highest concentration (30 μM) tested.)	–	–	–	–
CCCCCCCCCCCCCCCC(=O)OCC(O)CC(O)P(=O)([O-])O.[Na+] (mixture of isomers) [Compound 22b, reference compound]	> 30000	–	–	–	–	> 30000	–	–	–	–	–	NE (NE = no effect was shown at the highest concentration (30 μM) tested.)	–	–	–	–
CCCCCCCCCCCCCCCC(=O)OC[C@@H](O)C[C@@H](Br)P(=O)(O)O [Compound 1a]	–	–	–	–	–	–	35.1	–	–	–	Partial Antagonist	–	Antagonist	4440	1830	–
CCCCCCCCCCCCCCCC(=O)OC[C@@H](O)C[C@H](Br)P(=O)(O)O [Compound 1b]	–	–	–	–	–	–	33.1	–	–	–	Partial Antagonist	–	Antagonist	2090	623	–
CCCCCCCC/C=C\CCCCCCCC(=O)OCC(O)CCP(=O)(O)O (stereo not drawn) [Compound 20a, reference compound]	> 1710	–	–	–	–	3900 ± 104	–	–	(63.5 ± 4.8)	(110 ± 1.3)	weak LPA4 agonists	NE (NE = no effect was shown at the highest concentration (30 μM) tested.)	–	–	–	–
CCCCCCCCCCCCCCCC(=O)OC[C@@H](O)CCP(=O)([O-])O.[Na+] [Compound 20b, reference compound]	> 30000	961	–	–	–	5400 ± 526	–	–	–	(29.3 ± 1.1)	weak LPA4 agonists	NE (NE = no effect was shown at the highest concentration (30 μM) tested.)	–	–	–	2560 ± 1160
CCCCCCCCCCCCCCCC(=O)OCC(O)COP(=O)(O)O (stereo not drawn) [LPA (16:0), reference compound]	1530 ± 194	–	–	–	–	843 ± 130	–	–	(71.2 ± 2.9)	(102.4 ± 4.1)	–	NE (NE = no effect was shown at the highest concentration (30 μM) tested.)	–	–	–	–
